Test results taken from ChEMBL document CHEMBL4507298 (2021).

What was measured:
[1] = target: T1, 5-hydroxytryptamine receptor 2C (Homo sapiens) (UniProt P28335); test: 5-HT2C (h) CEREP ligand profiling; settings: Compound concentration 10.0 uM
T1 sequence (whole entry): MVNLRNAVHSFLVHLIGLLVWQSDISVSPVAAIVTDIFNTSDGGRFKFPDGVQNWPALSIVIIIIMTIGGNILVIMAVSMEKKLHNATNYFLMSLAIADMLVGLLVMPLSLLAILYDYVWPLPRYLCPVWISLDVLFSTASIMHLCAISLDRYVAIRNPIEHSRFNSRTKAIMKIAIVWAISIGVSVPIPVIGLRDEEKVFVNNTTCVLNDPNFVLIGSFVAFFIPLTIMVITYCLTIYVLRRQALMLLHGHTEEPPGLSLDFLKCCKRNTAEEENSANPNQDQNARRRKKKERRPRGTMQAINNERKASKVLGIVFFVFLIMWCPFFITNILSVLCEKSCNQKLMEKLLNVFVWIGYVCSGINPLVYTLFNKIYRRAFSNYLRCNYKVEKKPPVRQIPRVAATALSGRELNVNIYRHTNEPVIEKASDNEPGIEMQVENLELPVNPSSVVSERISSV

[2] = target: D(2) dopamine receptor (Homo sapiens) (UniProt P14416); test: D2S (h) (agonist site) CEREP ligand profiling; settings: Compound concentration 10.0 uM
[3] = target: Mitogen-activated protein kinase kinase kinase 12 (Homo sapiens) (UniProt Q12852); settings: Compound concentration 1000.0 nM
[4] = target: cGMP-specific 3',5'-cyclic phosphodiesterase (Homo sapiens) (UniProt O76074); test: PDE5 (h) CEREP ligand profiling; settings: Compound concentration 10.0 uM
[5] = target: Serine/threonine-protein kinase 33 (Homo sapiens) (UniProt Q9BYT3); settings: Compound concentration 1000.0 nM
[6] = target: Calcium/calmodulin-dependent protein kinase type IV (Homo sapiens) (UniProt Q16566); settings: Compound concentration 1000.0 nM
[7] = target: Cyclin-dependent kinase 2 (Homo sapiens) (UniProt P24941); settings: Compound concentration 1000.0 nM
[8] = target: 5-hydroxytryptamine receptor 7 (Homo sapiens) (UniProt P34969); settings: Compound concentration 10.0 uM
[9] = target: GABA-A receptor; anion channel (Homo sapiens) (UniProt P14867+P47870+P18507+P28472+P48169+Q99928+Q9UN88+P34903+O00591+O14764+Q8N1C3+P18505+P78334+P47869+P31644+Q16445); test: Cl- channel CEREP ligand profiling; format: protein-complex assay; settings: Compound concentration 10.0 uM
[10] = target: Serine/threonine-protein kinase PAK 2 (Homo sapiens) (UniProt Q13177); settings: Compound concentration 1000.0 nM
[11] = target: Mitogen-activated protein kinase 15 (Homo sapiens) (UniProt Q8TD08); settings: Compound concentration 1000.0 nM
[12] = target: Tyrosine-protein kinase Lyn (Homo sapiens) (UniProt P07948); settings: Compound concentration 1000.0 nM
[13] = target: Muscle, skeletal receptor tyrosine-protein kinase (Homo sapiens) (UniProt O15146); settings: Compound concentration 1000.0 nM
[14] = target: Mitogen-activated protein kinase kinase kinase 7 (Homo sapiens) (UniProt O43318); settings: Compound concentration 1000.0 nM
[15] = target: Tyrosine-protein kinase Mer (Homo sapiens) (UniProt Q12866); settings: Compound concentration 1000.0 nM
[16] = target: Cholecystokinin receptor type A (Homo sapiens) (UniProt P32238); test: CCKA (h) (CCK1) CEREP ligand profiling; settings: Compound concentration 10.0 uM
[17] = target: Mitogen-activated protein kinase kinase kinase 11 (Homo sapiens) (UniProt Q16584); settings: Compound concentration 1000.0 nM
[18] = target: Dual specificity tyrosine-phosphorylation-regulated kinase 2 (Homo sapiens) (UniProt Q92630); settings: Compound concentration 1000.0 nM
[19] = target: High affinity choline transporter 1 (Homo sapiens) (UniProt Q9GZV3); test: Choline transporter (h) (CHT1) CEREP ligand profiling; settings: Compound concentration 10.0 uM
[20] = target: Calcium/calmodulin-dependent protein kinase type II subunit alpha (Homo sapiens) (UniProt Q9UQM7); test: CaMK2alpha (h) CEREP ligand profiling; settings: Compound concentration 10.0 uM
[21] = target: Cytoplasmic tyrosine-protein kinase BMX (Homo sapiens) (UniProt P51813); settings: Compound concentration 1000.0 nM
[22] = target: Cyclin-dependent kinase 19 (Homo sapiens) (UniProt Q9BWU1); settings: Compound concentration 1000.0 nM
[23] = target: STE20/SPS1-related proline-alanine-rich protein kinase (Homo sapiens) (UniProt Q9UEW8); settings: Compound concentration 1000.0 nM
[24] = target: Serine/threonine-protein kinase 38 (Homo sapiens) (UniProt Q15208); settings: Compound concentration 1000.0 nM
[25] = target: Serine/threonine-protein kinase PLK4 (Homo sapiens) (UniProt O00444); settings: Compound concentration 1000.0 nM
[26] = target: Serine/threonine-protein kinase PknB (Mycobacterium tuberculosis) (UniProt P9WI81); settings: Compound concentration 1000.0 nM
[27] = target: Tyrosine-protein kinase Lyn (Homo sapiens) (UniProt P07948); test: Lyn kinase (h) CEREP ligand profiling; settings: Compound concentration 10.0 uM
[28] = target: Substance-P receptor (Homo sapiens) (UniProt P25103); test: NK1 (h) CEREP ligand profiling; settings: Compound concentration 10.0 uM
[29] = target: Serine/threonine-protein kinase 16 (Homo sapiens) (UniProt O75716); settings: Compound concentration 1000.0 nM
[30] = target: T2, Muscarinic acetylcholine receptor M2 (Homo sapiens) (UniProt P08172); test: M2 (h) CEREP ligand profiling; settings: Compound concentration 10.0 uM
T2 sequence (whole entry): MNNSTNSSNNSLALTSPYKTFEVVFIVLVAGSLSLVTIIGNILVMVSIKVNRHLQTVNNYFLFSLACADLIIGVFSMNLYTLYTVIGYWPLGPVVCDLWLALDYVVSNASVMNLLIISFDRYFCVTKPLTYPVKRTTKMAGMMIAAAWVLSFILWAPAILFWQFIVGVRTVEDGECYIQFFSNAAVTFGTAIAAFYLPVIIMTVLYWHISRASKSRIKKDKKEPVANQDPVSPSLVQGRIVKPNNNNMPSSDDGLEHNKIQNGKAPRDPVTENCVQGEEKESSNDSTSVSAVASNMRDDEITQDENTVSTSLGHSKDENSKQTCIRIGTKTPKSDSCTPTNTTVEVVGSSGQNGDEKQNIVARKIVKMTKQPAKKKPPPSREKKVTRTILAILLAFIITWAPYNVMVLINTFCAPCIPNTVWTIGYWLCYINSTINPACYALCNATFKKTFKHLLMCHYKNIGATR

[31] = target: Serine/threonine-protein kinase LATS1 (Homo sapiens) (UniProt O95835); settings: Compound concentration 1000.0 nM
[32] = target: Cyclin-G-associated kinase (Homo sapiens) (UniProt O14976); settings: Compound concentration 1000.0 nM

Tyrosine-protein kinase Lyn (Homo sapiens), sequence (P07948 2-512 limits assumed): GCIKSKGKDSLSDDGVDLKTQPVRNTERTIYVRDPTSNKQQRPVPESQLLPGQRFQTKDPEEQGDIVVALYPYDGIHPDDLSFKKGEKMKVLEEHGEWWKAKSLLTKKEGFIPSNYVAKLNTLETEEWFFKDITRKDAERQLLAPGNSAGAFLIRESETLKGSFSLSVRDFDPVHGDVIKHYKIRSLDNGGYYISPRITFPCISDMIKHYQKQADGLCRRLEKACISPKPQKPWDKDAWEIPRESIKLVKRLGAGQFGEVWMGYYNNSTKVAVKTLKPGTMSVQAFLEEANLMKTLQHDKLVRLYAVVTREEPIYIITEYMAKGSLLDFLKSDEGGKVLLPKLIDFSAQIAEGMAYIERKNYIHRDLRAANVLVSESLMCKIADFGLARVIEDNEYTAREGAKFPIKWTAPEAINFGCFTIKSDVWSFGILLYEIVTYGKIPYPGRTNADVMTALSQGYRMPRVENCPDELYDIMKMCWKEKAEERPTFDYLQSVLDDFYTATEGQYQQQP
Serine/threonine-protein kinase 38 (Homo sapiens), sequence (Q15208 2-465 limits assumed): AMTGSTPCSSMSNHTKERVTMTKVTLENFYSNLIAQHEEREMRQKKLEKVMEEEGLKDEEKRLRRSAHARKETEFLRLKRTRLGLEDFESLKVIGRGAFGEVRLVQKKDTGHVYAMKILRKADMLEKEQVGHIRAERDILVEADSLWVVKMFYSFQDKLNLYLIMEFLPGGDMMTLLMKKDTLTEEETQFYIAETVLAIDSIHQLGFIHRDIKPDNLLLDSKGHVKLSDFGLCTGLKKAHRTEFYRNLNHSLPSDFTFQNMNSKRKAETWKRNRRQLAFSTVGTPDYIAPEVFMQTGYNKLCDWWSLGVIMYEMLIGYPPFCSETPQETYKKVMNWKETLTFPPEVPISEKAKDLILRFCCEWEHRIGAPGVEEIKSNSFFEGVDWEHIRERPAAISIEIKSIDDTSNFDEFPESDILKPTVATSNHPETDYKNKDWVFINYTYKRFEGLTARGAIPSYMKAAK
Tyrosine-protein kinase Mer (Homo sapiens), sequence (Q12866 whole entry): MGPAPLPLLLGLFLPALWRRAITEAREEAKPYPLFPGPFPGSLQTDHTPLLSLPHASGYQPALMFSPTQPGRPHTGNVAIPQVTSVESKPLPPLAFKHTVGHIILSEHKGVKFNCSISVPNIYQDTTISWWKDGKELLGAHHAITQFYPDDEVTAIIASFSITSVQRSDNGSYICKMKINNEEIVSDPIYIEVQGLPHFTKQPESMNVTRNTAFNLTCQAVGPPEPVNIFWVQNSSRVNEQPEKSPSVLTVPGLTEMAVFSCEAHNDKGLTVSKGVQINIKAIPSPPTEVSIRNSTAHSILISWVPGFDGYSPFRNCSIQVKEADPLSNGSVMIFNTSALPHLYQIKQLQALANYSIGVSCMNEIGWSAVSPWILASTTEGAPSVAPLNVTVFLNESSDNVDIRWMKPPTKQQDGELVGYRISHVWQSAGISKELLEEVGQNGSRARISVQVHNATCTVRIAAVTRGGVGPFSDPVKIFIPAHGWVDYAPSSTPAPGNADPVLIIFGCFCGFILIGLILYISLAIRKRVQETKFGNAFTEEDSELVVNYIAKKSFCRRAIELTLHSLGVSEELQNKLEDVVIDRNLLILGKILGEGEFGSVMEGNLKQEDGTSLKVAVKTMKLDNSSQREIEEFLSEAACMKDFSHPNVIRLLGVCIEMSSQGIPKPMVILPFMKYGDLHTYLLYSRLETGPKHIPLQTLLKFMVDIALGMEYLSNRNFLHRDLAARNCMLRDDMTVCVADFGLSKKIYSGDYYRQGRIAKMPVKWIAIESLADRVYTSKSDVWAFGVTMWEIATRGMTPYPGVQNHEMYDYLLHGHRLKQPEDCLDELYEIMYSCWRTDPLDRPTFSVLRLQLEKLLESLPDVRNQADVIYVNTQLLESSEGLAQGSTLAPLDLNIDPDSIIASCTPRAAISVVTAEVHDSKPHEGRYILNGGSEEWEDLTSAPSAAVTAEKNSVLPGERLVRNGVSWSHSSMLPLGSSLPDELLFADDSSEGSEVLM
Calcium/calmodulin-dependent protein kinase type IV (Homo sapiens), sequence (Q16566 whole entry): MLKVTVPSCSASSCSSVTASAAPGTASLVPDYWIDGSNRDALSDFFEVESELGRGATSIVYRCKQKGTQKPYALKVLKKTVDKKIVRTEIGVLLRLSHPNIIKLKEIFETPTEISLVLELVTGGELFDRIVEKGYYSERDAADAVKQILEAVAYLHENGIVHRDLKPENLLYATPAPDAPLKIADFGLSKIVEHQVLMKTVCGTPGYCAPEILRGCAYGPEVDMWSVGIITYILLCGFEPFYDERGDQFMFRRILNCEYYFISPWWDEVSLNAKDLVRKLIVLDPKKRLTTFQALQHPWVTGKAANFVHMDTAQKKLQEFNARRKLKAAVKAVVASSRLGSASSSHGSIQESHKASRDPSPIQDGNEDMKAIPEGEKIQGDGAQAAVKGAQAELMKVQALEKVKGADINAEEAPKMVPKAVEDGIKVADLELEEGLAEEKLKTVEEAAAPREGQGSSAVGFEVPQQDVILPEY
Calcium/calmodulin-dependent protein kinase type II subunit alpha (Homo sapiens), sequence (Q9UQM7 whole entry): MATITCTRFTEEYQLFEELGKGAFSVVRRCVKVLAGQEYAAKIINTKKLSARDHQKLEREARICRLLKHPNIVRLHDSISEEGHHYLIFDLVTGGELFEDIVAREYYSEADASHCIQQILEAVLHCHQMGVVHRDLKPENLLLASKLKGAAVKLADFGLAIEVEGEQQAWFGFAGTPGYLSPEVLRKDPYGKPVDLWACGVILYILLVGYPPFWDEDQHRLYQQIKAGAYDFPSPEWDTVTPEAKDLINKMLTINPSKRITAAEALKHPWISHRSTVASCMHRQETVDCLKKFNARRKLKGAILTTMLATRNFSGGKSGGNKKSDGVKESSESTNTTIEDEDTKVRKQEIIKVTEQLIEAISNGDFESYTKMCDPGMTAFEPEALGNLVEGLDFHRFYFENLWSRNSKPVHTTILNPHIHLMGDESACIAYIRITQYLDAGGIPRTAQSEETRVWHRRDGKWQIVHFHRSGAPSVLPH
Cytoplasmic tyrosine-protein kinase BMX (Homo sapiens), sequence (P51813 whole entry): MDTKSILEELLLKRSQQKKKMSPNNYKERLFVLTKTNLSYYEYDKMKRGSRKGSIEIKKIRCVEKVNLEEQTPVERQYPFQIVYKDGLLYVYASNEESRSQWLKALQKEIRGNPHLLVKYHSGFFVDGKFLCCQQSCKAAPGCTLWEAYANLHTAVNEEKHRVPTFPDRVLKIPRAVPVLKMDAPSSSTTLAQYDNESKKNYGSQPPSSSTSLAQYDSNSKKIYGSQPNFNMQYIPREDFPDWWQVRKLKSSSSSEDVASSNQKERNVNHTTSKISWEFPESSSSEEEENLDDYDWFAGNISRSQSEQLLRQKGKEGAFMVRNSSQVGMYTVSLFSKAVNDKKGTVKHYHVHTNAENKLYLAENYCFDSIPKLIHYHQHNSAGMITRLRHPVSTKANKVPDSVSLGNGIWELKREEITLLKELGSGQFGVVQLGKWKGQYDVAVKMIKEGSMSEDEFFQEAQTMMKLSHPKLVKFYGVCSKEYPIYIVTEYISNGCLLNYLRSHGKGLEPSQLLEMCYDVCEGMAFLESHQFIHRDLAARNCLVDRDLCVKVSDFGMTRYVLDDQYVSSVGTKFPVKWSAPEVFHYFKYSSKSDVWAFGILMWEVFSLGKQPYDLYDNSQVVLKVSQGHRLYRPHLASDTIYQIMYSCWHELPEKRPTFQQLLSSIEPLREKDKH
Serine/threonine-protein kinase 33 (Homo sapiens), sequence (Q9BYT3 whole entry, looked up): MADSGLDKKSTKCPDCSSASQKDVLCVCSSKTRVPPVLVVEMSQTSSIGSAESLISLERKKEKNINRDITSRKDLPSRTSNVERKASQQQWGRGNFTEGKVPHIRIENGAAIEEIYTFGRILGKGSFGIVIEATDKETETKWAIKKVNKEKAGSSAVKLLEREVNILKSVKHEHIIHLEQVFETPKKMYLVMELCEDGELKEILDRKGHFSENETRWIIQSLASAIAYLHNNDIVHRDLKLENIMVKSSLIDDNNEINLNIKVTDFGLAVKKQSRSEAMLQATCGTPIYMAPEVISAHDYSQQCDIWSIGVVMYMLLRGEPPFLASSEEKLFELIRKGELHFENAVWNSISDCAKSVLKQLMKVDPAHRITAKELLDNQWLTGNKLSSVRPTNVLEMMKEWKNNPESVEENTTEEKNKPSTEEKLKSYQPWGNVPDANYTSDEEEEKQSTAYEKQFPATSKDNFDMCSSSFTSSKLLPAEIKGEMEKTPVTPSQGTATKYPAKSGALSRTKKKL
High affinity choline transporter 1 (Homo sapiens), sequence (Q9GZV3 whole entry): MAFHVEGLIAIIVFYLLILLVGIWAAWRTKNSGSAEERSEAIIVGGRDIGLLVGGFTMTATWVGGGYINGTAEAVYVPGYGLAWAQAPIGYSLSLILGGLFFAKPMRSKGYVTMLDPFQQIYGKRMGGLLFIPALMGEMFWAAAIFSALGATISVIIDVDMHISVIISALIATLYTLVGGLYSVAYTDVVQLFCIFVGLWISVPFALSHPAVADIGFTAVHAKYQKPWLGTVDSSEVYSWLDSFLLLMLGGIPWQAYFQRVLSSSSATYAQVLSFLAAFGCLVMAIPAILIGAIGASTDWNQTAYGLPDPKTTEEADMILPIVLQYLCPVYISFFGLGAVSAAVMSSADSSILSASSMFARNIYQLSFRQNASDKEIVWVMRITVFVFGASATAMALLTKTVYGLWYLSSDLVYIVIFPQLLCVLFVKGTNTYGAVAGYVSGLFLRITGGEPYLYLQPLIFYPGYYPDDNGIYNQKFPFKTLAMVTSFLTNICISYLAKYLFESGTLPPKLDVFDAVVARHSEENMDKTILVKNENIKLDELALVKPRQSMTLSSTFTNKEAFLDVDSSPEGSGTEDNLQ
Serine/threonine-protein kinase 16 (Homo sapiens), sequence (O75716 whole entry): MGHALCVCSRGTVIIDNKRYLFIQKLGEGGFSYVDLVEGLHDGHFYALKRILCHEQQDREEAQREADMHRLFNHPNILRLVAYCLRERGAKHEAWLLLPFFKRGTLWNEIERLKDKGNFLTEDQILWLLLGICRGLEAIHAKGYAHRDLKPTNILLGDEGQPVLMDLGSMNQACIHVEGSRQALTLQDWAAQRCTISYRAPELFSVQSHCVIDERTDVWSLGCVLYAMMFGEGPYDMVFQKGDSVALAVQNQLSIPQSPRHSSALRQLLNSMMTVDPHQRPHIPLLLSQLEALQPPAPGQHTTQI

COc1ccc2cc(OCC3(C(=O)O)CN(C(=O)c4ccc(F)cc4)C3)ccc2c1 [PF-04418948]
inactive: inhibition [1] 8% | inhibition [2] -6% | residual activity [3] 97% | inhibition [4] 6% | residual activity [5] 98% | residual activity [6] 88% | residual activity [7] 91% | inhibition [8] -9.26% | inhibition [9] 19% | residual activity [10] 83% | residual activity [11] 74% | residual activity [12] 85% | residual activity [13] 72% | residual activity [14] 96% | residual activity [15] 80% | inhibition [16] 29% | residual activity [17] 79% | residual activity [18] 84% | inhibition [19] 4% | inhibition [20] 5% | residual activity [21] 87% | residual activity [22] 95% | residual activity [23] 55% | residual activity [24] 98% | residual activity [25] 82% | residual activity [26] 88% | inhibition [27] 2% | inhibition [28] 3% | residual activity [29] 88% | inhibition [30] 1% | residual activity [31] 87% | residual activity [32] 88%
